{"source": "patent US20020111314A1", "about": "“Novel stimulation of gene expression and protein synthesis of heat shock protein 72/73 (Hsp 70)” (The Trustees of Columbia University, priority 1995, published 2002)", "key": {"Hsp70 [1]": {"test_system": "Hsp70", "experiment": "Hsp70 induction in human microvascular endothelial cell line", "type": "cell-based", "conditions": "4 hours ALLN 40 μg/ml, 30 min labeling with [3H]-leucine"}, "Hsp70 [2]": {"test_system": "Hsp70", "experiment": "Hsp70 induction in Chinese hamster ovary (CHO) cells", "type": "cell-based", "conditions": "data not shown"}, "[3]": {"test_system": "Hsp90, Hsp60, Hsp25, Hsp27, Hsp86, Hsp104, Bip and albumin", "experiment": "Biosynthesis of other Hsp family members and related proteins in HepG2 cells (SDS-PAGE, immunoprecipitation)", "type": "cell-based, human", "protocol": "FIGS. 2A-2B: Effects of ALLN on Hsp25, Hsp60, Hsp90 and Bip biosynthesis. HepG2 cells were pre-treated and radiolabeled with/without ALLN for 4 hours as described in FIG. 1. Cell lysates were denatured and aliquoted for immunoprecipitation with anti-Hsp25, anti-Hsp60, anti-Hsp90, or anti-Bip antibodies respectively (1 μg/ml). Because the anti-Hsp90 antibody is of rat source, rabbit anti-rat IgG antibody was added after the first incubation and the incubation was extended for another 1 hour at 4° C. before collection with protein A-Sepharose. Immunoprecipitates were aliquoted for scintillation counting and plotted. Each value is presented as means±SD from three individual experiments.\nFIGS. 7A-7B: Effects of ALLN on the biosynthesis of other members of Hsp family and related proteins. HepG2cells were pre-treated and radiolabeled with or without ALLN for 4 hours as described in FIG. 1. […]\nHepG2 cells were preincubated for 4 hours in serum-free MEM and then radiolabeled with ^3H-Leucine (150 μCi/ml) in a serum-free, leucine-free medium. […] Cell lysates containing equal amounts of trichloroacetic acid (TCA)-insoluble radioactivity were used for immunoprecipitations by incubating with individual monoclonal antibody (1 μg/ml) for 2.5 hours at 4° C. […]"}}, "note": "“Also recorded” adds a separate entry of the source. Square brackets hold non-standard residues; d marks the D form. Peptide text beside a SMILES is read from it. Nle = CCCC[C@H](N)C(=O)O", "data": [{"smiles": "CCCC[C@@H](C=O)NC(=O)[C@H](CC(C)C)NC(=O)[C@H](CC(C)C)NC(C)=O", "note": "[ALLN, N-acetyl-leucyl-leucyl-norleucinal] (Ac-Leu-Leu-[Nle]-aldehyde)", "values": [{"measurement": "increment of Hsp70 level", "setting": "Hsp70 [1]", "value": 35, "unit": "fold"}, {"measurement": "cellular Hsp70 levels", "setting": "Hsp70 [2]", "value": "increasing cellular Hsp70 levels"}, {"measurement": "effect on Hsp90, Hsp60, Hsp25, Hsp27, Hsp86, Hsp104, Bip or albumin levels", "setting": "[3]; ALLN 4 hours", "value": "no effects; also recorded: only Hsp70 was induced"}, {"measurement": "level of a protein of about 80-90 kDa (whole-cell protein pattern, FIG. 2A)", "setting": "[3]; ALLN-treated vs control", "value": "also increased but not as significantly as Hsp70"}]}]}
